This is an account of results in publication PMC3462775 (PLoS ONE, 2012).

Entries after “also recorded” stand apart in the source; their conditions may differ.

One data set concerns elastase. Description: Pseudomonas aeruginosa elastase (3 µg, Calbiochem) in 300 µl 20 mM Tris-HCl, 1 mM CaCl2 pH 7.8. The settings on record: 37°C, up to 24 h.
The subject of another data set is aureolysin. Kind of data set: Staphylococcus aureus aureolysin (3 µg, BioCol GmbH) in 300 µl 20 mM Tris-HCl, 1 mM CaCl2 pH 7.8. As to conditions: 37°C, up to 24 h.

On to KKIRVRLSA, for which, in the data set on elastase, the cleaved bond entry is given as “R6-L7, 5 h; also recorded: S8-A9, 5 h” and the not cleaved result is reported as “resisted degradation by elastase for 24 h”. Also, in the data set with aureolysin, the cleaved bond result was “R6-L7, 1h; also recorded: S8-A9, 1h” and the not cleaved result is “remaining unaltered after 24 h of incubation”.
